Measured values reported in US9417241B2, “5, 10, 15, 20-tetrakis (carboxyphenyl) porphine (TCPP) and kit for use with detecting cancer” (bioAffinity Technologies, Inc., priority 2000, dated 2016).

System: sputum cells (dysplastic, pre-cancerous and cancerous cells)
Test: Glass slide assay for detection of pre-cancerous and cancerous cells with TCPP (fluorescence microscopy of sputum monolayer slides vs PAP-stain cytomorphology)
Type: cell-based, human

O=C(O)c1ccc(-c2c3nc(c(-c4ccc(C(=O)O)cc4)c4ccc([nH]4)c(-c4ccc(C(=O)O)cc4)c4nc(c(-c5ccc(C(=O)O)cc5)c5ccc2[nH]5)C=C4)C=C3)cc1 [TCPP]
Number of Samples with Cells having Numerical Description by TCPP Fluorescence Microscopy/Number of Samples with Cell Description by Cytmorphology (1 = Large nucleus or nuclei, low to medium fluorescence, Adenicarcinoma, squamous cell and small cell carcinoma (n = 10)): 6/10
Number of Samples with Cells having Numerical Description by TCPP Fluorescence Microscopy/Number of Samples with Cell Description by Cytmorphology (1 = Large nucleus or nuclei, low to medium fluorescence, Carcinoma in situ (n = 11)): 10/11
Number of Samples with Cells having Numerical Description by TCPP Fluorescence Microscopy/Number of Samples with Cell Description by Cytmorphology (1 = Large nucleus or nuclei, low to medium fluorescence, Mild dysplasia (n = 12)): 12/12
Number of Samples with Cells having Numerical Description by TCPP Fluorescence Microscopy/Number of Samples with Cell Description by Cytmorphology (1 = Large nucleus or nuclei, low to medium fluorescence, Moderate dysplasia (n = 9)): 9/9
Number of Samples with Cells having Numerical Description by TCPP Fluorescence Microscopy/Number of Samples with Cell Description by Cytmorphology (1 = Large nucleus or nuclei, low to medium fluorescence, Negative or metaplastic (n = 10)): 3/10
Number of Samples with Cells having Numerical Description by TCPP Fluorescence Microscopy/Number of Samples with Cell Description by Cytmorphology (1 = Large nucleus or nuclei, low to medium fluorescence, Severe dysplasia (n = 8)): 7/8
Number of Samples with Cells having Numerical Description by TCPP Fluorescence Microscopy/Number of Samples with Cell Description by Cytmorphology (2 = Symmetrical binuclear cells, medium fluorescence, Adenicarcinoma, squamous cell and small cell carcinoma (n = 10)): 2/10
Number of Samples with Cells having Numerical Description by TCPP Fluorescence Microscopy/Number of Samples with Cell Description by Cytmorphology (2 = Symmetrical binuclear cells, medium fluorescence, Carcinoma in situ (n = 11)): 3/11
Number of Samples with Cells having Numerical Description by TCPP Fluorescence Microscopy/Number of Samples with Cell Description by Cytmorphology (2 = Symmetrical binuclear cells, medium fluorescence, Mild dysplasia (n = 12)): 5/12
Number of Samples with Cells having Numerical Description by TCPP Fluorescence Microscopy/Number of Samples with Cell Description by Cytmorphology (2 = Symmetrical binuclear cells, medium fluorescence, Moderate dysplasia (n = 9)): 5/9
Number of Samples with Cells having Numerical Description by TCPP Fluorescence Microscopy/Number of Samples with Cell Description by Cytmorphology (2 = Symmetrical binuclear cells, medium fluorescence, Negative or metaplastic (n = 10)): 0/10
Number of Samples with Cells having Numerical Description by TCPP Fluorescence Microscopy/Number of Samples with Cell Description by Cytmorphology (2 = Symmetrical binuclear cells, medium fluorescence, Severe dysplasia (n = 8)): 3/8
Number of Samples with Cells having Numerical Description by TCPP Fluorescence Microscopy/Number of Samples with Cell Description by Cytmorphology (3 = Small oval cells, medium to high fluorescence, Adenicarcinoma, squamous cell and small cell carcinoma (n = 10)): 6/10
Number of Samples with Cells having Numerical Description by TCPP Fluorescence Microscopy/Number of Samples with Cell Description by Cytmorphology (3 = Small oval cells, medium to high fluorescence, Carcinoma in situ (n = 11)): 6/11
Number of Samples with Cells having Numerical Description by TCPP Fluorescence Microscopy/Number of Samples with Cell Description by Cytmorphology (3 = Small oval cells, medium to high fluorescence, Mild dysplasia (n = 12)): 4/12
Number of Samples with Cells having Numerical Description by TCPP Fluorescence Microscopy/Number of Samples with Cell Description by Cytmorphology (3 = Small oval cells, medium to high fluorescence, Moderate dysplasia (n = 9)): 4/9
Number of Samples with Cells having Numerical Description by TCPP Fluorescence Microscopy/Number of Samples with Cell Description by Cytmorphology (3 = Small oval cells, medium to high fluorescence, Negative or metaplastic (n = 10)): 0/10
Number of Samples with Cells having Numerical Description by TCPP Fluorescence Microscopy/Number of Samples with Cell Description by Cytmorphology (3 = Small oval cells, medium to high fluorescence, Severe dysplasia (n = 8)): 2/8
Number of Samples with Cells having Numerical Description by TCPP Fluorescence Microscopy/Number of Samples with Cell Description by Cytmorphology (4 = Small round cells, low fluorescence, Adenicarcinoma, squamous cell and small cell carcinoma (n = 10)): 2/10
Number of Samples with Cells having Numerical Description by TCPP Fluorescence Microscopy/Number of Samples with Cell Description by Cytmorphology (4 = Small round cells, low fluorescence, Carcinoma in situ (n = 11)): 0/11
Number of Samples with Cells having Numerical Description by TCPP Fluorescence Microscopy/Number of Samples with Cell Description by Cytmorphology (4 = Small round cells, low fluorescence, Mild dysplasia (n = 12)): 0/12
Number of Samples with Cells having Numerical Description by TCPP Fluorescence Microscopy/Number of Samples with Cell Description by Cytmorphology (4 = Small round cells, low fluorescence, Moderate dysplasia (n = 9)): 0/9
Number of Samples with Cells having Numerical Description by TCPP Fluorescence Microscopy/Number of Samples with Cell Description by Cytmorphology (4 = Small round cells, low fluorescence, Negative or metaplastic (n = 10)): 0/10
Number of Samples with Cells having Numerical Description by TCPP Fluorescence Microscopy/Number of Samples with Cell Description by Cytmorphology (4 = Small round cells, low fluorescence, Severe dysplasia (n = 8)): 0/8
Number of Samples with Cells having Numerical Description by TCPP Fluorescence Microscopy/Number of Samples with Cell Description by Cytmorphology (5 = Multi-nucleated cells, medium fluorescence, Adenicarcinoma, squamous cell and small cell carcinoma (n = 10)): 7/10
Number of Samples with Cells having Numerical Description by TCPP Fluorescence Microscopy/Number of Samples with Cell Description by Cytmorphology (5 = Multi-nucleated cells, medium fluorescence, Carcinoma in situ (n = 11)): 9/11
Number of Samples with Cells having Numerical Description by TCPP Fluorescence Microscopy/Number of Samples with Cell Description by Cytmorphology (5 = Multi-nucleated cells, medium fluorescence, Mild dysplasia (n = 12)): 0/12
Number of Samples with Cells having Numerical Description by TCPP Fluorescence Microscopy/Number of Samples with Cell Description by Cytmorphology (5 = Multi-nucleated cells, medium fluorescence, Moderate dysplasia (n = 9)): 3/9
Number of Samples with Cells having Numerical Description by TCPP Fluorescence Microscopy/Number of Samples with Cell Description by Cytmorphology (5 = Multi-nucleated cells, medium fluorescence, Negative or metaplastic (n = 10)): 0/10
Number of Samples with Cells having Numerical Description by TCPP Fluorescence Microscopy/Number of Samples with Cell Description by Cytmorphology (5 = Multi-nucleated cells, medium fluorescence, Severe dysplasia (n = 8)): 6/8
Number of Samples with Cells having Numerical Description by TCPP Fluorescence Microscopy/Number of Samples with Cell Description by Cytmorphology (6 = Irregular anisoid cells, low to medium fluorescence, Adenicarcinoma, squamous cell and small cell carcinoma (n = 10)): 7/10
Number of Samples with Cells having Numerical Description by TCPP Fluorescence Microscopy/Number of Samples with Cell Description by Cytmorphology (6 = Irregular anisoid cells, low to medium fluorescence, Carcinoma in situ (n = 11)): 10/11
Number of Samples with Cells having Numerical Description by TCPP Fluorescence Microscopy/Number of Samples with Cell Description by Cytmorphology (6 = Irregular anisoid cells, low to medium fluorescence, Mild dysplasia (n = 12)): 0/12
Number of Samples with Cells having Numerical Description by TCPP Fluorescence Microscopy/Number of Samples with Cell Description by Cytmorphology (6 = Irregular anisoid cells, low to medium fluorescence, Moderate dysplasia (n = 9)): 1/9
Number of Samples with Cells having Numerical Description by TCPP Fluorescence Microscopy/Number of Samples with Cell Description by Cytmorphology (6 = Irregular anisoid cells, low to medium fluorescence, Negative or metaplastic (n = 10)): 0/10
Number of Samples with Cells having Numerical Description by TCPP Fluorescence Microscopy/Number of Samples with Cell Description by Cytmorphology (6 = Irregular anisoid cells, low to medium fluorescence, Severe dysplasia (n = 8)): 1/8
Number of Samples with Cells having Numerical Description by TCPP Fluorescence Microscopy/Number of Samples with Cell Description by Cytmorphology (7 = Cellular clusters, medium to high fluorescence, Adenicarcinoma, squamous cell and small cell carcinoma (n = 10)): 3/10
Number of Samples with Cells having Numerical Description by TCPP Fluorescence Microscopy/Number of Samples with Cell Description by Cytmorphology (7 = Cellular clusters, medium to high fluorescence, Carcinoma in situ (n = 11)): 1/11
Number of Samples with Cells having Numerical Description by TCPP Fluorescence Microscopy/Number of Samples with Cell Description by Cytmorphology (7 = Cellular clusters, medium to high fluorescence, Mild dysplasia (n = 12)): 0/12
Number of Samples with Cells having Numerical Description by TCPP Fluorescence Microscopy/Number of Samples with Cell Description by Cytmorphology (7 = Cellular clusters, medium to high fluorescence, Moderate dysplasia (n = 9)): 1/9
Number of Samples with Cells having Numerical Description by TCPP Fluorescence Microscopy/Number of Samples with Cell Description by Cytmorphology (7 = Cellular clusters, medium to high fluorescence, Negative or metaplastic (n = 10)): 0/10
Number of Samples with Cells having Numerical Description by TCPP Fluorescence Microscopy/Number of Samples with Cell Description by Cytmorphology (7 = Cellular clusters, medium to high fluorescence, Severe dysplasia (n = 8)): 0/8
Number of Samples with Cells having Numerical Description by TCPP Fluorescence Microscopy/Number of Samples with Cell Description by Cytmorphology (8 = Degenerated single cells, medium to high fluorescence, Adenicarcinoma, squamous cell and small cell carcinoma (n = 10)): 7/10
Number of Samples with Cells having Numerical Description by TCPP Fluorescence Microscopy/Number of Samples with Cell Description by Cytmorphology (8 = Degenerated single cells, medium to high fluorescence, Carcinoma in situ (n = 11)): 4/11
Number of Samples with Cells having Numerical Description by TCPP Fluorescence Microscopy/Number of Samples with Cell Description by Cytmorphology (8 = Degenerated single cells, medium to high fluorescence, Mild dysplasia (n = 12)): 0/12
Number of Samples with Cells having Numerical Description by TCPP Fluorescence Microscopy/Number of Samples with Cell Description by Cytmorphology (8 = Degenerated single cells, medium to high fluorescence, Moderate dysplasia (n = 9)): 0/9
Number of Samples with Cells having Numerical Description by TCPP Fluorescence Microscopy/Number of Samples with Cell Description by Cytmorphology (8 = Degenerated single cells, medium to high fluorescence, Negative or metaplastic (n = 10)): 0/10
Number of Samples with Cells having Numerical Description by TCPP Fluorescence Microscopy/Number of Samples with Cell Description by Cytmorphology (8 = Degenerated single cells, medium to high fluorescence, Severe dysplasia (n = 8)): 0/8
Number of Samples with Cells having Numerical Description by TCPP Fluorescence Microscopy/Number of Samples with Cell Description by Cytmorphology (9 = Degenerated cell clusters, medium to high fluorescence, Adenicarcinoma, squamous cell and small cell carcinoma (n = 10)): 4/10
Number of Samples with Cells having Numerical Description by TCPP Fluorescence Microscopy/Number of Samples with Cell Description by Cytmorphology (9 = Degenerated cell clusters, medium to high fluorescence, Carcinoma in situ (n = 11)): 1/11
Number of Samples with Cells having Numerical Description by TCPP Fluorescence Microscopy/Number of Samples with Cell Description by Cytmorphology (9 = Degenerated cell clusters, medium to high fluorescence, Mild dysplasia (n = 12)): 0/12
Number of Samples with Cells having Numerical Description by TCPP Fluorescence Microscopy/Number of Samples with Cell Description by Cytmorphology (9 = Degenerated cell clusters, medium to high fluorescence, Moderate dysplasia (n = 9)): 0/9
Number of Samples with Cells having Numerical Description by TCPP Fluorescence Microscopy/Number of Samples with Cell Description by Cytmorphology (9 = Degenerated cell clusters, medium to high fluorescence, Negative or metaplastic (n = 10)): 0/10
